This is an account of results in PubChem BioAssay AID328 (DTP/NCI, 2004).

Several values for one entry are separate records, joined by “and”; a condition that tells them apart may be missing. Identical values can stand only once. Inconclusive results and toxic doses are left out.

In this test the test system is BDF1 mice, P388 leukemia ip, median survival T/C. Briefly: NCI In Vivo Anticancer Drug Screen. Data for tumor model P388 Leukemia (intraperitoneal) in B6D2F1 (BDF1) mice. The conditions noted are these: endpoint: median survival time, higher = longer survival. A digest of the protocol: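 Antitumour effect was judged in vivo: survival in drug-treated mice, normalised to that of vehicle-dosed controls, gives the reported T/C.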

Setting [1] is: dose: 100.0 mg/kg/injection, schedule: Q01DX009 (ip), vehicle: saline with Tween-80.
The mark [2] stands for this setting: dose: 200.0 mg/kg/injection, schedule: Q01DX009 (ip), vehicle: saline with Tween-80.
[3] abbreviates: dose: 100.0 mg/kg/injection, schedule: Q04DX003 (ip), vehicle: saline with Tween-80.
Where [4] appears, read: dose: 200.0 mg/kg/injection, schedule: Q04DX003 (ip), vehicle: saline with Tween-80.
Where [5] appears, read: dose: 400.0 mg/kg/injection, schedule: Q04DX003 (ip), vehicle: saline with Tween-80.

Consider `COc1cc(-c2ccc(O)cc2)c(OC)c(O)c1-c1ccc(O)c(O)c1`, for which the T/C is 97 % of control (dose: 1.25 mg/kg/injection, schedule: Q01DX009 (ip), vehicle: Klucel (hydroxypropylcellulose) (HPC)); 96 % of control (dose: 2.5 mg/kg/injection, schedule: Q01DX009 (ip), vehicle: Klucel (hydroxypropylcellulose) (HPC)); 98 % of control (dose: 5.0 mg/kg/injection, schedule: Q01DX009 (ip), vehicle: Klucel (hydroxypropylcellulose) (HPC)); 95 % of control (dose: 10.0 mg/kg/injection, schedule: Q01DX009 (ip), vehicle: Klucel (hydroxypropylcellulose) (HPC)); 97 % of control (dose: 20.0 mg/kg/injection, schedule: Q01DX009 (ip), vehicle: Klucel (hydroxypropylcellulose) (HPC)); 97 % of control (dose: 40.0 mg/kg/injection, schedule: Q01DX009 (ip), vehicle: Klucel (hydroxypropylcellulose) (HPC)).
As to `FC(F)(F)c1nc[nH]c1C(F)(F)F`, the T/C was 99 % of control (dose: 3.12 mg/kg/injection, schedule: Q01DX009 (ip), vehicle: water); 90 % of control (dose: 6.25 mg/kg/injection, schedule: Q01DX009 (ip), vehicle: water); 91 % of control (dose: 12.5 mg/kg/injection, schedule: Q01DX009 (ip), vehicle: water); 99 % of control (dose: 25.0 mg/kg/injection, schedule: Q01DX009 (ip), vehicle: water); 89 % of control (dose: 50.0 mg/kg/injection, schedule: Q01DX009 (ip), vehicle: water); 98 % of control (dose: 50.0 mg/kg/injection, schedule: Q04DX003 (ip), vehicle: water). Moreover, the T/C (dose: 100.0 mg/kg/injection, schedule: Q04DX003 (ip), vehicle: water) is 104 % of control.
As to `O=C(O)c1c(Cl)cc(Cl)c(-c2c(Cl)cc(Cl)c(C(=O)O)c2Cl)c1Cl`, the T/C by setting is: under setting [1], 112 % of control; under setting [2], 108 % of control; (dose: 400.0 mg/kg/injection, schedule: Q01DX009 (ip), vehicle: saline with Tween-80) 108 % of control.
On to `CC1=C/C(=C/c2ccccc2)CC(C)(C)C1` (tested in a mixture with another compound), for which the T/C is, setting by setting: (dose: 25.0 mg/kg/injection, schedule: Q01DX009 (ip), vehicle: saline sonified) 104 % of control; (dose: 50.0 mg/kg/injection, schedule: Q01DX009 (ip), vehicle: saline sonified) 100 % of control; (dose: 100.0 mg/kg/injection, schedule: Q01DX009 (ip), vehicle: saline sonified) 100 % of control.
`COc1ccc(/C=C/C(=O)c2ccc(OC)cc2)cc1`: the T/C runs as follows: (dose: 100.0 mg/kg/injection, schedule: Q04DX003 (ip), vehicle: Klucel (hydroxypropylcellulose) (HPC)) 100 % of control; (dose: 200.0 mg/kg/injection, schedule: Q04DX003 (ip), vehicle: Klucel (hydroxypropylcellulose) (HPC)) 104 % of control; (dose: 400.0 mg/kg/injection, schedule: Q04DX003 (ip), vehicle: Klucel (hydroxypropylcellulose) (HPC)) 95 % of control.
On to `C=C(C)C(=O)O[C@H]1[C@H]2[C@H](OC(=O)[C@H]2C)[C@H](O)[C@@H](C)[C@@H]2C=CC(=O)[C@]21C`, for which the T/C (dose: 3.13 mg/kg/injection, schedule: Q01DX009 (ip), vehicle: saline) was 102 % of control; the T/C (dose: 6.25 mg/kg/injection, schedule: Q01DX009 (ip), vehicle: saline) is 110 % of control; the T/C (dose: 25.0 mg/kg/injection, schedule: Q01DX009 (ip), vehicle: saline) is 161 % of control.
As to `S=C(Nc1ccccc1)N(C1CCCCC1)C1CCCCC1`, the T/C is 100 % of control (dose: 100.0 mg/kg/injection, schedule: Q01DX001 (ip), vehicle: saline with Tween-80); 103 % of control (dose: 200.0 mg/kg/injection, schedule: Q01DX001 (ip), vehicle: saline with Tween-80); 155 % of control under setting [2]; 103 % of control (dose: 400.0 mg/kg/injection, schedule: Q01DX001 (ip), vehicle: saline with Tween-80).
Turning to `COc1ccc(C2NC(=S)NC3=C2CCCC3)cc1` (stereo unspecified), the T/C is 96 % of control (dose: 50.0 mg/kg/injection, schedule: Q01DX009 (ip), vehicle: saline with Tween-80); 107 % of control under setting [1]; 98 % of control under setting [2].
Take `CCNc1ccc(/C=C2\C=Cc3ccccc32)cc1`: the T/C is, setting by setting: (dose: 0.39 mg/kg/injection, schedule: Q01DX009 (ip), vehicle: Klucel (hydroxypropylcellulose) (HPC)) 100 % of control; (dose: 0.78 mg/kg/injection, schedule: Q01DX009 (ip), vehicle: Klucel (hydroxypropylcellulose) (HPC)) 105 % of control; (dose: 1.56 mg/kg/injection, schedule: Q01DX009 (ip), vehicle: Klucel (hydroxypropylcellulose) (HPC)) 110 % of control; (dose: 3.12 mg/kg/injection, schedule: Q01DX009 (ip), vehicle: Klucel (hydroxypropylcellulose) (HPC)) 90 % of control; (dose: 6.25 mg/kg/injection, schedule: Q01DX009 (ip), vehicle: olive oil, sesame oil, peanut oil) 113 % of control; (dose: 12.5 mg/kg/injection, schedule: Q01DX009 (ip), vehicle: Klucel (hydroxypropylcellulose) (HPC)) 95 % of control. For the same molecule, the T/C by setting is: (dose: 12.5 mg/kg/injection, schedule: Q01DX009 (ip), vehicle: olive oil, sesame oil, peanut oil) 118 % of control; (dose: 25.0 mg/kg/injection, schedule: Q01DX009 (ip), vehicle: olive oil, sesame oil, peanut oil) 118 % of control; (dose: 50.0 mg/kg/injection, schedule: Q01DX009 (ip), vehicle: olive oil, sesame oil, peanut oil) 100 % of control.
For `Nc1c(Cl)cc(S(N)(=O)=O)cc1Cl`, the T/C reads like this: under setting [1], 86 % of control; under setting [3], 104 % of control; under setting [2], 90 % of control; under setting [4], 104 % of control; under setting [5], 100 % of control.
Consider `O=NN(c1ccccc1)c1ccc(N(N=O)c2ccccc2)cc1`, for which the T/C reads like this: (dose: 50.0 mg/kg/injection, schedule: Q01DX009 (ip), vehicle: Klucel (hydroxypropylcellulose) (HPC)) 100 % of control; (dose: 100.0 mg/kg/injection, schedule: Q01DX009 (ip), vehicle: Klucel (hydroxypropylcellulose) (HPC)) 105 % of control; (dose: 200.0 mg/kg/injection, schedule: Q01DX009 (ip), vehicle: Klucel (hydroxypropylcellulose) (HPC)) 110 % of control.
With `CCC1SC(=S)N(c2ccc(S(N)(=O)=O)cc2)C1=O` (stereo unspecified), the T/C is 96 % of control (dose: 33.75 mg/kg/injection, schedule: Q01DX009 (ip), vehicle: saline with Tween-80); 97 % of control (dose: 67.5 mg/kg/injection, schedule: Q01DX009 (ip), vehicle: saline with Tween-80); 97 % of control (dose: 135.0 mg/kg/injection, schedule: Q01DX009 (ip), vehicle: saline with Tween-80).
Regarding `O=Cc1[nH]c(=S)[nH]c(=O)c1Cc1ccc([N+](=O)[O-])cc1`, the T/C reads like this: under setting [3], 100 % of control; under setting [4], 95 % of control; under setting [5], 112 % of control.
Take `CC(=O)N(CC1CNc2nc(N)[nH]c(=O)c2N1C(=O)CCCCCCC(=O)N1c2c(nc(N)[nH]c2=O)NCC1CN(C(C)=O)c1ccc(C(=O)NC(CCC(=O)O)C(=O)O)cc1)c1ccc(C(=O)NC(CCC(=O)O)C(=O)O)cc1` (stereo unspecified): the T/C was 103 % of control (dose: 50.0 mg/kg/injection, schedule: Q04DX003 (ip), vehicle: sodium bicarbonate); 91 % of control (dose: 100.0 mg/kg/injection, schedule: Q04DX003 (ip), vehicle: sodium bicarbonate); 112 % of control (dose: 200.0 mg/kg/injection, schedule: Q04DX003 (ip), vehicle: sodium bicarbonate).
Regarding `[N-]=[N+]=CC(=O)CCC(N)C(=O)O` (stereo unspecified), the T/C was 113 % of control (dose: 0.03 mg/kg/injection, schedule: Q01DX010 (ip), vehicle: saline); 170 % of control (dose: 0.1 mg/kg/injection, schedule: Q01DX010 (ip), vehicle: saline); 150 % of control (dose: 0.1 mg/kg/injection, schedule: Q01DX010 (ip), vehicle: water); 95 % of control and 100 % of control (dose: 0.2 mg/kg/injection, schedule: Q01DX010 (ip), vehicle: saline); 190 % of control (dose: 0.2 mg/kg/injection, schedule: Q01DX010 (ip), vehicle: water); 155 % of control (dose: 0.4 mg/kg/injection, schedule: Q01DX010 (ip), vehicle: water). The T/C (dose: 0.6 mg/kg/injection, schedule: Q01DX010 (ip), vehicle: water) was 95 % of control and 120 % of control; the T/C (dose: 0.8 mg/kg/injection, schedule: Q01DX010 (ip), vehicle: water) was 100 % of control; the T/C (dose: 2.5 mg/kg/injection, schedule: Q02DX005 (oral), vehicle: other) is 163 % of control; the T/C (dose: 5.0 mg/kg/injection, schedule: Q02DX005 (oral), vehicle: other) was 159 % of control; the T/C (dose: 10.0 mg/kg/injection, schedule: Q02DX005 (oral), vehicle: other) was 186 % of control; the T/C (dose: 15.0 mg/kg/injection, schedule: Q02DX005 (oral), vehicle: other) is 218 % of control. Moreover, the T/C (dose: 20.0 mg/kg/injection, schedule: Q02DX005 (oral), vehicle: other) is 86 % of control.
